Source: patent publication US6747012B1, “Crystalline anthracycline antibiotic and process for producing the same” (Mercian Corporation, priority 1997, dated 2004)

Key:
Assay type in all cases: physicochemical
[1] = Tests for hygroscopicity (critical relative humidity); settings: for Critical relative humidity (%): stored at 30° C., relative humidities 32 to 91%, until steady state, calculated from increases or decreases in moisture content, hydrochloride
Description: Samples of the powders (or crystalline powders) obtained in Examples 1-8 were stored at 30° C. and at relative humidities ranging from 32 to 91%. Their moisture contents were measured until a steady state was reached.

[2] = Residual solvent content by gas chromatography; settings: for Residual solvent content (%): gas chromatography (GC), hydrochloride
Description: Each of the same samples as used in Example 12 was analyzed by gas chromatography (GC) to determine its residual solvent content.
(Operating Conditions for Analysis by GC)
Detector: Flame ionization detector.
Column temperature: Operated at 40° C. for 5 minutes, and then raised to 80° C. in 5 minutes and held at that temperature.
Vaporization chamber temperature: A constant temperature around 200°.
Flow rate: A constant flow rate at which the retention time of an internal standard substance (dioxane) is about 6 minutes.

[3] = Tests for chemical stability (storage at 60° C., HPLC); settings: for Amount of remaining DM (%): hermetically sealed container, 60° C. for 1 month, HPLC, hydrochloride
Description: Each of the same samples as used in Example 12 was placed in a hermetically sealed container and stored at 60° C. for 1 month. Then, the sample was analyzed by HPLC to determine the DM content in the sample.
(Conditions for Analysis by HPLC)
Column: YMC A-312 (ODS) (manufactured by YMC Co., Ltd.).
Mobile phase: Acetonitrile-water (38:62) (adjusted to pH 2.2 with phosphoric acid).
Flow velocity: About 1.5 ml/min.

Row | Structure (SMILES) | Critical relative humidity (%) [1] | Residual solvent content (%) [2] | Amount of remaining DM (%) [3] | hygroscopicity (in words) ([1]; conclusion from Table 1) | residual solvent content (in words) ([2]; conclusion from Table 3) | chemical stability (in words) ([3]; conclusion from Table 2)
1 | COc1cccc2c1C(=O)c1c(O)c3c(c(O)c1C2=O)CC(O)(C(C)=O)CC3OC1CC(N)C(O)C(C)O1.Cl (stereo not drawn) [Ex.1, DM hydrochloride] | 34% | 0.14% | 91.4% | – | – | –
2 | COc1cccc2c1C(=O)c1c(O)c3c(c(O)c1C2=O)CC(O)(C(C)=O)CC3OC1CC(N)C(O)C(C)O1.Cl (stereo not drawn) [Ex.2, DM hydrochloride] | 73% | 0.40% | 100% | very low hygroscopicity | within an acceptable limit | excellent chemical stability
3 | COc1cccc2c1C(=O)c1c(O)c3c(c(O)c1C2=O)CC(O)(C(C)=O)CC3OC1CC(N)C(O)C(C)O1.Cl (stereo not drawn) [Ex.3, DM hydrochloride] | 41% | 0.03% | 97.1% | – | – | –
4 | COc1cccc2c1C(=O)c1c(O)c3c(c(O)c1C2=O)CC(O)(C(C)=O)CC3OC1CC(N)C(O)C(C)O1.Cl (stereo not drawn) [Ex.4, DM hydrochloride] | 28% | 0.50% | 90.4% | – | – | –
5 | COc1cccc2c1C(=O)c1c(O)c3c(c(O)c1C2=O)CC(O)(C(C)=O)CC3OC1CC(N)C(O)C(C)O1.Cl (stereo not drawn) [Ex.5, DM hydrochloride] | 29% | 0.19% | 97.5% | – | – | –
6 | COc1cccc2c1C(=O)c1c(O)c3c(c(O)c1C2=O)CC(O)(C(C)=O)CC3OC1CC(N)C(O)C(C)O1.Cl (stereo not drawn) [Ex.6, DM hydrochloride] | 29% | 0.18% | 94.2% | – | – | –
7 | COc1cccc2c1C(=O)c1c(O)c3c(c(O)c1C2=O)CC(O)(C(C)=O)CC3OC1CC(N)C(O)C(C)O1.Cl (stereo not drawn) [Ex.7, DM hydrochloride] | 41% | 0.05% | 97.2% | – | – | –
8 | COc1cccc2c1C(=O)c1c(O)c3c(c(O)c1C2=O)CC(O)(C(C)=O)CC3OC1CC(N)C(O)C(C)O1.Cl (stereo not drawn) [Ex.8, DM hydrochloride] | 53% | 0.95% | 96.5% | – | – | –
